Test results reported in patent US10336702B2, “Pharmaceutically active compounds” (BERGENBIO ASA, priority 2015, dated 2019).

Experiments:
Akt2 = biological target: T1, Akt2 (Homo sapiens, UniProt P31751); experiment: Akt activation assay (PDK1-mediated activation, LANCE Ultra crosstide TR-FRET), Akt2; format: biochemical; conditions: read-out: Biological Assay 1 IC50 (nM) Akt2
T1 construct: unspecified tag, removed (detagged) (cleaved yes); purchased SignalChem and Proteros (Akt2); Merck Millipore (PDK1) 14-452 (PDK1); none given for Akt2
T1 sequence (P31751 whole entry): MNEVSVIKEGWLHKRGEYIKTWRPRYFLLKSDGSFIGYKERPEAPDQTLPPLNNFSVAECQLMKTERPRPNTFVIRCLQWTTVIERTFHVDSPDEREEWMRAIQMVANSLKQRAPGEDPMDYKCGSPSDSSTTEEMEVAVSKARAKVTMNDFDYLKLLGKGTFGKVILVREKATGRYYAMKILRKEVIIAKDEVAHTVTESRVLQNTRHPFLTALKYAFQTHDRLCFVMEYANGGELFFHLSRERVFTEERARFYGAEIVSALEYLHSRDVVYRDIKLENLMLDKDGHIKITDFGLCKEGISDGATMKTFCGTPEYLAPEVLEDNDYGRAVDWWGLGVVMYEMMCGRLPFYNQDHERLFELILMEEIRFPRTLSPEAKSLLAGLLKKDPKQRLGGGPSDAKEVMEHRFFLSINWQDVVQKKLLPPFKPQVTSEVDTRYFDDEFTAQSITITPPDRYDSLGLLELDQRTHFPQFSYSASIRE
Procedure, shortened: (§1)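 Compound + Akt preinc.; start w/ PDK1 5 nM, DOPS/DOPC 5.5 μM each, PIP3 0.55 μM, ATP 100 μM, Ulight-crosstide 100 nM; HEPES pH 7.5, 10 mM MgCl2, 2 mM DTT, 1% DMSO; 30 min; EDTA stop; Eu-Ab TR-FRET; 4-PL IC50.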

Akt3 = biological target: T2, Akt3 (Homo sapiens, UniProt Q9Y243); experiment: Akt activation assay (PDK1-mediated activation, LANCE Ultra crosstide TR-FRET), Akt3; format: biochemical; conditions: read-out: Biological Assay 1 IC50 (nM) Akt3
T2 construct: unspecified tag, removed (detagged) (cleaved yes); purchased SignalChem and Proteros (Akt3); Merck Millipore (PDK1) 14-452 (PDK1); none given for Akt3
T2 sequence (Q9Y243 whole entry): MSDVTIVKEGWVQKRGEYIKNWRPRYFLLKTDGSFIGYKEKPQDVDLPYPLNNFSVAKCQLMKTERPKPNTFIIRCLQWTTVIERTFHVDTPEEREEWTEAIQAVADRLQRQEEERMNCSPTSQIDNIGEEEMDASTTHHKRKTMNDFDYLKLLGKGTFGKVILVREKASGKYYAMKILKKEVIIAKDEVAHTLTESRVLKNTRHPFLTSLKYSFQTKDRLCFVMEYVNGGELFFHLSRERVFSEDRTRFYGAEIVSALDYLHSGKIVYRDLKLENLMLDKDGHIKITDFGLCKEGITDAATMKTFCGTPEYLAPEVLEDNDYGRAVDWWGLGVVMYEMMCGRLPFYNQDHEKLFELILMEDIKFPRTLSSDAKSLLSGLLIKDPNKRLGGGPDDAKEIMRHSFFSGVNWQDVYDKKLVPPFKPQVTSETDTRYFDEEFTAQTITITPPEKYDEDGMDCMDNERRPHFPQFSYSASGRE
Procedure, shortened: as §1

p-Akt1 in LNCaP cells = biological target: T3, p-Akt1 in LNCaP cells (Homo sapiens, UniProt P31749); experiment: Phospho-Akt cellular SureFire assay, p-Akt1 in LNCaP cells; format: cell-based; conditions: read-out: Biological Assay 2 IC50 (nM) Akt1 LNCaP
T3 construct: SureFire assays to detect cellular p-Akt1, p-Akt2 and p-Akt3 levels in WM115 cells (Akt2/3) and LNCaP cells (Akt1); endogenous in cells; host or cells: LNCaP (ECACC 89110211)
T3 sequence (P31749 whole entry): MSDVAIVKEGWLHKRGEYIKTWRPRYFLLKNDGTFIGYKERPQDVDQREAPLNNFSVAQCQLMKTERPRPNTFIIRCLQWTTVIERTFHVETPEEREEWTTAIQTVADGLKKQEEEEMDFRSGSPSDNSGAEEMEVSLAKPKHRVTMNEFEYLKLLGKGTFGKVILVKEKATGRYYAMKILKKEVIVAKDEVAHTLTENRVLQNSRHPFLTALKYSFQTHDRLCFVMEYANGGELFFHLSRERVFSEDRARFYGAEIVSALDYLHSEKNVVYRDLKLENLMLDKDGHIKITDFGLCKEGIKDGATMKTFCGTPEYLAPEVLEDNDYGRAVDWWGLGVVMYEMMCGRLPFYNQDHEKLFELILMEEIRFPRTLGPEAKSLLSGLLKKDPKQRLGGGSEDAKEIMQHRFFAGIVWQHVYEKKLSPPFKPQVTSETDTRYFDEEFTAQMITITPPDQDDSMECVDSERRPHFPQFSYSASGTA
Procedure, shortened: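 LNCaP cells, 5×10^4/well, seeded overnight, switched to 0.1% FBS medium without insulin stimulation, then compound for 15 min at 37 °C (0.3% DMSO). Lysate p-Akt1 (pThr308) by AlphaScreen SureFire, two 2 h incubations at room temperature; IC50 by 4-parameter fit.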

p-Akt3 in WM115 cells = biological target: T4, p-Akt3 in WM115 cells (Homo sapiens, UniProt Q9Y243); experiment: Phospho-Akt cellular SureFire assay, p-Akt3 in WM115 cells; format: cell-based; conditions: insulin stimulated, read-out: Biological Assay 2 IC50 (nM) Akt3 WM115
T4 construct: SureFire assays to detect cellular p-Akt1, p-Akt2 and p-Akt3 levels in WM115 cells (Akt2/3) and LNCaP cells (Akt1); endogenous in cells; host or cells: WM115 (ECACC 91061232), insulin-stimulated
T4 sequence (Q9Y243 whole entry): as the sequence (Q9Y243 whole entry) above
Procedure, shortened: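 WM115 cells were serum-reduced to 0.1% FBS, stimulated with 100 nM insulin for 10 min, then exposed to compound (0.3% DMSO) for 15 min at 37 °C. Lysates were assayed for Thr308-phosphorylated Akt3 by AlphaScreen SureFire using an isoform-specific total Akt3 capture antibody. IC50 was derived from a 4-parameter fit.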

p-Akt2 in WM115 cells = biological target: T5, p-Akt2 in WM115 cells (Homo sapiens, UniProt P31751); experiment: Phospho-Akt cellular SureFire assay, p-Akt2 in WM115 cells; format: cell-based; conditions: insulin stimulated, read-out: Biological Assay 2 IC50 (nM) Akt2 WM115
T5 construct: SureFire assays to detect cellular p-Akt1, p-Akt2 and p-Akt3 levels in WM115 cells (Akt2/3) and LNCaP cells (Akt1); endogenous in cells; host or cells: WM115 (ECACC 91061232), insulin-stimulated
T5 sequence (P31751 whole entry): as the sequence (P31751 whole entry) above
Procedure, shortened: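 WM115 cells in 0.1% FBS medium stimulated 10 min with 100 nM insulin, then exposed to compound for 15 min at 37° C (0.3% DMSO final). Lysates assayed by AlphaScreen with anti-(pThr308)Akt and isoform-specific total Akt2 antibodies; IC50 from 4-parameter fit.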

Akt1 = biological target: T6, Akt1 (Homo sapiens, UniProt P31749); experiment: Akt activation assay (PDK1-mediated activation, LANCE Ultra crosstide TR-FRET), Akt1; format: biochemical; conditions: read-out: Biological Assay 1 IC50 (nM) Akt1
T6 construct: unspecified tag, removed (detagged) (cleaved yes); purchased SignalChem and Proteros (Akt1); Merck Millipore (PDK1) 14-452 (PDK1); none given for Akt1
T6 sequence (P31749 whole entry): as the sequence (P31749 whole entry) above
Procedure, shortened: as §1

Structure (SMILES)	IC50 (Akt2)	IC50 (Akt3)	IC50 (p-Akt1 in LNCaP cells)	IC50 (p-Akt3 in WM115 cells)	IC50 (p-Akt2 in WM115 cells)	IC50 (Akt1)
CC(=O)N(C)[C@H]1CC[C@H](CC(=O)Nc2cnc(-c3ccc([C@]4(N)C[C@H](F)C4)cc3)c(-c3ccccc3)c2)CC1 [Example 32, N-(6-(4-(trans-1-amino-3-fluorocyclobutyl)phenyl)-5-phenylpyridin-3-yl)-2-(trans-4-(N-methylacetamido)cyclohexyl)acetamide]	470 nM	34 nM	6900 nM	36 nM	1400 nM	2000 nM
COC(=O)N(C)[C@H]1CC[C@H](CC(=O)Nc2cnc(-c3ccc(C(C)(C)N)cc3)c(-c3ccccc3)c2)CC1 [Example 34, methyl (trans-4-(2-((6-(4-(2-aminopropan-2-yl)phenyl)-5-phenylpyridin-3-yl)amino)-2-oxoethyl)cyclohexyl)(methyl)carbamate]	6500 nM	380 nM	> 15000 nM	150 nM	5200 nM	> 29000 nM
CN(C1CCC(CC(=O)Nc2cnc(-c3ccc(C(C)(C)N)cc3)c(-c3ccccc3)c2)CC1)C1(C)COC1 (stereo not drawn) [Example 35, N-(6-(4-(2-aminopropan-2-yl)phenyl)-5-phenylpyridin-3-yl)-2-(4-(methyl(3-methyloxetan-3-yl)amino)cyclohexyl)acetamide]	25000 nM	17000 nM	> 30000 nM	1500 nM	17000 nM	> 30000 nM
COC1(OC)CCC(CC(=O)Nc2cnc(-c3ccc(C4(N)COC4)cc3)c(-c3ccccc3)c2)CC1 [Example 36, N-(6-(4-(3-aminooxetan-3-yl)phenyl)-5-phenylpyridin-3-yl)-2-(4,4-dimethoxycyclohexyl)acetamide]	> 30000 nM	100 nM	> 30000 nM	230 nM	3800 nM	> 30000 nM
NC1(c2ccc(-c3ncc(NC(=O)C[C@H]4CC[C@H](N5CCOCC5)CC4)cc3-c3ccsc3)cc2)CCC1 [Example 38, N-(6-(4-(1-aminocyclobutyl)phenyl)-5-(thiophen-3-yl)pyridin-3-yl)-2-(trans-4-morpholinocyclohexyl)acetamide]	1900 nM	560 nM	7000 nM	92 nM	3000 nM	9000 nM
CC(C)(N)c1ccc(-c2ncc(NC(=O)C[C@H]3CC[C@H](N4CCOC4=O)CC3)cc2-c2ccccc2)cc1 [Example 42, N-(6-(4-(2-aminopropan-2-yl)phenyl)-5-phenylpyridin-3-yl)-2-(trans-4-(2-oxooxazolidin-3-yl)cyclohexyl)acetamide]	4500 nM	960 nM	> 30000 nM	210 nM	7900 nM	> 30000 nM
CC(=O)N(C)[C@H]1CC[C@H](CC(=O)Nc2cnc(-c3ccc(C(C)(C)N)nc3)c(-c3ccccc3)c2)CC1 [Example 43, N-(6′-(2-aminopropan-2-yl)-3-phenyl-[2,3′-bipyridin]-5-yl)-2-(trans-4-(N-methylacetamido)cyclohexyl)acetamide]	> 30000 nM	1100 nM	> 30000 nM	1700 nM	> 30000 nM	> 30000 nM
COC(=O)N(C)[C@H]1CC[C@H](CC(=O)Nc2cnc(-c3ccc([C@]4(N)C[C@](C)(O)C4)cc3)c(-c3ccccc3)c2)CC1 [Example 44, Methyl (trans-4-(2-((6-(4-(trans-1-amino-3-hydroxy-3-methylcyclobutyl)phenyl)-5-phenylpyridin-3-yl)amino)-2-oxoethyl)cyclohexyl)(methyl)carbamate]	110 nM	22 nM	1100 nM	6 nM	350 nM	1200 nM
N[C@]1(c2ccc(-c3nnc(NC(=O)C[C@H]4CC[C@H](N5CCOC5=O)CC4)cc3-c3ccccc3)cc2)C[C@@H](F)C1 [Example 45, N-(6-(4-(trans-1-amino-3-fluorocyclobutyl)phenyl)-5-phenylpyridazin-3-yl)-2-(trans-4-(2-oxooxazolidin-3-yl)cyclohexyl)acetamide]	380 nM	67 nM	> 30000 nM	38 nM	> 3600 nM	> 17000 nM
CN(C(=O)C1CCC1)[C@H]1CC[C@H](CC(=O)Nc2cnc(-c3ccc(C(C)(C)N)cc3)c(-c3ccccc3)c2)CC1 [Example 47, N-(trans-4-(2-((6-(4-(2-aminopropan-2-yl)phenyl)-5-phenylpyridin-3-yl)amino)-2-oxoethyl)cyclohexyl)-N-methylcyclobutanecarboxamide]	6100 nM	75 nM	> 30000 nM	240 nM	5300 nM	> 30000 nM
NC1(c2ccc(-c3ncc(NC(=O)[C@@H](F)C4CCN(S(=O)(=O)C5CC5)CC4)cc3-c3ccccc3)cc2)CCC1 [Example 50, (S)—N-(6-(4-(1-aminocyclobutyl)phenyl)-5-phenylpyridin-3-yl)-2-(1-(cyclopropylsulfonyl)piperidin-4-yl)-2-fluoroacetamide]	670 nM	370 nM	> 30000 nM	580 nM	6800 nM	5800 nM
COC(=O)N(C(C)C)[C@H]1CC[C@H](CC(=O)Nc2cnc(-c3ccc(C4(N)CCC4)cc3)c(-c3ccccc3)c2)CC1 [Example 51, Methyl (trans-4-(2-((6-(4-(1-aminocyclobutyl)phenyl)-5-phenylpyridin-3-yl)amino)-2-oxoethyl)cyclohexyl)(isopropyl)carbamate]	1500 nM	190 nM	> 30000 nM	670 nM	9100 nM	8900 nM
CN(C(=O)C1CC1)[C@H]1CC[C@H](CC(=O)Nc2cnc(-c3ccc(C(C)(C)N)c(F)c3)c(-c3ccccc3)c2)CC1 [Example 53, N-(trans-4-(2-((6-(4-(2-aminopropan-2-yl)-3-fluorophenyl)-5-phenylpyridin-3-yl)amino)-2-oxoethyl)cyclohexyl)-N-methylcyclopropanecarboxamide]	> 30000 nM	4100 nM	> 30000 nM	680 nM	18000 nM	> 30000 nM
CN(C)C(=O)[C@H]1CC[C@H](CC(=O)Nc2cnc(-c3ccc(C(C)(C)N)cc3)c(-c3ccccc3)c2)CC1 [Example 55, trans-4-(2-((6-(4-(2-aminopropan-2-yl)phenyl)-5-phenylpyridin-3-yl)amino)-2-oxoethyl)-N,N-dimethylcyclohexanecarboxamide]	3300 nM	1600 nM	> 30000 nM	160 nM	3800 nM	> 30000 nM
COC(=O)N(C)[C@H]1CC[C@H](CC(=O)Nc2cc(-c3ccccc3)c(-c3ccc(C(C)(C)N)cc3)nn2)CC1 [Example 56, Methyl (trans-4-(2-((6-(4-(2-aminopropan-2-yl)phenyl)-5-phenylpyridazin-3-yl)amino)-2-oxoethyl)cyclohexyl)(methyl)carbamate]	10000 nM	100 nM	> 30000 nM	330 nM	> 30000 nM	> 30000 nM
CC(=O)N(C)[C@H]1CC[C@H](CC(=O)Nc2cc(-c3ccccc3)c(-c3ccc([C@]4(N)C[C@](C)(O)C4)cc3)nn2)CC1 [Example 57, N-(6-(4-(trans-1-amino-3-hydroxy-3-methylcyclobutyl)phenyl)-5-phenylpyridazin-3-yl)-2-(trans-4-(N-methylacetamido)cyclohexyl)acetamide]	190 nM	7 nM	5300 nM	8 nM	600 nM	1600 nM
